Values joined by “and” are separate entries in the source; they are usually repeats but may differ in a detail not shown here. Equal values may be shown once. Inconclusive results and toxic doses are left out.
Test system: B6C3F1 mice, B16 melanoma ip, median survival T/C
Assay: NCI In Vivo Anticancer Drug Screen. Data for tumor model B16 Melanoma (intraperitoneal) in B6C3F1 mice
Details: endpoint: median survival time, higher = longer survival
Outline: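 Values are T/C ratios: the measurement in treated animals divided by that in vehicle-treated controls, using survival or tumor size in mice carrying transplantable tumors.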

[1] = dose: 12.5 mg/kg/injection, schedule: Q01DX009 (ip), vehicle: saline with Tween-80
[2] = dose: 25.0 mg/kg/injection, schedule: Q01DX009 (ip), vehicle: saline with Tween-80
[3] = dose: 50.0 mg/kg/injection, schedule: Q01DX009 (ip), vehicle: saline with Tween-80
[4] = dose: 100.0 mg/kg/injection, schedule: Q01DX009 (ip), vehicle: saline with Tween-80
[5] = dose: 200.0 mg/kg/injection, schedule: Q01DX009 (ip), vehicle: saline with Tween-80
[6] = dose: 400.0 mg/kg/injection, schedule: Q01DX009 (ip), vehicle: saline with Tween-80
[7] = dose: 2.5 mg/kg/injection, schedule: Q01DX009 (ip), vehicle: saline with Tween-80
[8] = dose: 5.0 mg/kg/injection, schedule: Q01DX009 (ip), vehicle: saline with Tween-80
[9] = dose: 25.0 mg/kg/injection, schedule: Q01DX009 (ip), vehicle: Klucel (hydroxypropylcellulose) (HPC)
[10] = dose: 50.0 mg/kg/injection, schedule: Q01DX009 (ip), vehicle: Klucel (hydroxypropylcellulose) (HPC)
[11] = dose: 100.0 mg/kg/injection, schedule: Q01DX009 (ip), vehicle: Klucel (hydroxypropylcellulose) (HPC)

In the case of `CC(Cc1ccc(O)cc1)NCC(O)c1ccc(O)c(O)c1` (stereo not given), the T/C [1] is reported as 97 % of control, the T/C [2] is reported as 92 % of control and the T/C [3] is reported as 100 % of control. The T/C [4] was 101 % of control, the T/C [5] was 101 % of control and the T/C [6] was 111 % of control.
For `CC(=O)OC1=C(Br)CCc2ccccc21`, the T/C (dose: 3.12 mg/kg/injection, schedule: Q01DX009 (ip), vehicle: DMSO) was 88 % of control, the T/C (dose: 6.25 mg/kg/injection, schedule: Q01DX009 (ip), vehicle: DMSO) was 87 % of control and the T/C (dose: 12.5 mg/kg/injection, schedule: Q01DX009 (ip), vehicle: DMSO) was 88 % of control. The T/C (dose: 25.0 mg/kg/injection, schedule: Q01DX009 (ip), vehicle: DMSO) was 91 % of control.
`COC1C(N)C(OC2C(Oc3cccc4c(O)c5c(=O)oc6ccc(C)c7c(=O)oc(c34)c5c67)OC(C)C(O)C2(C)O)OC(C)C1O` (stereo not given) was tested, and the T/C (dose: 1.09 mg/kg/injection, schedule: Q01DX009 (ip), vehicle: DMSO) was 226 % of control, the T/C (dose: 1.25 mg/kg/injection, schedule: Q01DX009 (ip), vehicle: other) was 179 % of control and the T/C (dose: 1.81 mg/kg/injection, schedule: Q01DX009 (ip), vehicle: DMSO) was 255 % of control. For the same compound, the T/C (dose: 2.5 mg/kg/injection, schedule: Q01DX009 (ip), vehicle: other) was 227 % of control, the T/C (dose: 3.0 mg/kg/injection, schedule: Q01DX009 (ip), vehicle: DMSO) was 244 % of control and the T/C (dose: 5.0 mg/kg/injection, schedule: Q01DX009 (ip), vehicle: DMSO) was 326 % of control. The T/C (dose: 5.0 mg/kg/injection, schedule: Q01DX009 (ip), vehicle: other) was 227 % of control, the T/C (dose: 8.4 mg/kg/injection, schedule: Q01DX009 (ip), vehicle: DMSO) was 190 % of control and the T/C (dose: 10.0 mg/kg/injection, schedule: Q01DX009 (ip), vehicle: other) was 179 % of control.
For `CN1CCN(c2ccc([N+](=O)[O-])c3no[n+]([O-])c23)CC1`, the T/C [7] was 101 % of control, the T/C [8] was 111 % of control and the T/C (dose: 20.0 mg/kg/injection, schedule: Q01DX009 (ip), vehicle: saline with Tween-80) was 95 % of control.
In the case of `NC(=O)NC(CC(=O)O)C(=O)O` (stereo not given), the T/C [3] is reported as 113 % of control, the T/C [4] is reported as 95 % of control and the T/C [5] is reported as 102 % of control.
For `O=C(Oc1cc(Cl)ccc1Cl)c1ccccc1`, the T/C [3] was 96 % of control, the T/C [4] was 97 % of control and the T/C [5] was 91 % of control. For the same compound, the T/C [6] was 87 % of control.
`Cc1ccc2c(ccc(CC(=S)[S-])[n+]2C)c1` was tested, and the T/C (dose: 6.25 mg/kg/injection, schedule: Q01DX009 (ip), vehicle: Klucel (hydroxypropylcellulose) (HPC)) was 92 % of control and 93 % of control, the T/C (dose: 12.5 mg/kg/injection, schedule: Q01DX009 (ip), vehicle: Klucel (hydroxypropylcellulose) (HPC)) was 92 % of control and 99 % of control and the T/C [9] was 87 % of control and 88 % of control. For the same compound, the T/C [10] was 89 % of control.
For `CC1=C(C(N)=O)C(c2ccccc2)NC(=S)N1` (stereo not given), the T/C [9] was 106 % of control, the T/C [10] was 105 % of control and the T/C [11] was 100 % of control. The T/C (dose: 200.0 mg/kg/injection, schedule: Q01DX009 (ip), vehicle: Klucel (hydroxypropylcellulose) (HPC)) was 117 % of control.
For `CCCCNc1nc(N)nc(Nc2ccc(Br)cc2)c1N=O`, the T/C [10] was 97 % of control and the T/C [11] was 92 % of control.
In the case of `CN1CCC(c2ccccc2)(c2ccccc2)C(=O)C1`, the T/C [2] is reported as 97 % of control, the T/C [3] is reported as 90 % of control and the T/C [4] is reported as 93 % of control and 95 % of control.
For `CCCCN(CCCC)CCNc1ccc(Cl)c2oc3cc(C)ccc3c(=O)c12`, the T/C (dose: 50.0 mg/kg/injection, schedule: Q01DX009 (ip), vehicle: saline) was 94 % of control and the T/C (dose: 100.0 mg/kg/injection, schedule: Q01DX009 (ip), vehicle: saline) was 87 % of control.
For `N#CC(Br)(Br)C(N)=O`, the T/C (dose: 0.31 mg/kg/injection, schedule: Q01DX009 (ip), vehicle: saline) was 96 % of control, the T/C (dose: 1.25 mg/kg/injection, schedule: Q01DX009 (ip), vehicle: saline) was 87 % of control and the T/C (dose: 37.5 micrograms/kg/injection, schedule: Q01DX009 (ip), vehicle: saline) was 98 % of control. For the same compound, the T/C (dose: 75.0 micrograms/kg/injection, schedule: Q01DX009 (ip), vehicle: saline) was 98 % of control, the T/C (dose: 150.0 micrograms/kg/injection, schedule: Q01DX009 (ip), vehicle: saline) was 96 % of control and the T/C (dose: 300.0 micrograms/kg/injection, schedule: Q01DX009 (ip), vehicle: saline) was 93 % of control.
For `O=C(Nc1nncs1)c1cccs1`, the T/C [1] was 110 % of control, the T/C [2] was 105 % of control and the T/C [3] was 101 % of control. For the same compound, the T/C [4] was 108 % of control and 106 % of control and the T/C [5] was 121 % of control and 104 % of control.
With `Cc1cc2nc3[nH]c4ccccc4c3nc2cc1C` the T/C (dose: 12.5 mg/kg/injection, schedule: Q01DX008 (ip), vehicle: saline) was 91 % of control, the T/C (dose: 25.0 mg/kg/injection, schedule: Q01DX008 (ip), vehicle: saline) was 90 % of control and the T/C (dose: 50.0 mg/kg/injection, schedule: Q01DX008 (ip), vehicle: saline) was 101 % of control. The T/C (dose: 100.0 mg/kg/injection, schedule: Q01DX008 (ip), vehicle: saline) was 91 % of control, the T/C (dose: 200.0 mg/kg/injection, schedule: Q01DX008 (ip), vehicle: saline) was 86 % of control and the T/C (dose: 400.0 mg/kg/injection, schedule: Q01DX008 (ip), vehicle: saline) was 88 % of control.
In the case of `CC/C(C)=C1\OC(=O)C(C)C(O)C(Cc2cccnc2)NC(=O)C(NC(=O)c2ncccc2O)C(C)OC1=O` (stereo not given), the T/C (dose: 0.75 mg/kg/injection, schedule: Q01DX009 (ip), vehicle: saline with Tween-80) is reported as 113 % of control, the T/C (dose: 1.5 mg/kg/injection, schedule: Q01DX009 (ip), vehicle: saline with Tween-80) is reported as 107 % of control and the T/C (dose: 3.0 mg/kg/injection, schedule: Q01DX009 (ip), vehicle: saline with Tween-80) is reported as 123 % of control. The T/C (dose: 6.0 mg/kg/injection, schedule: Q01DX009 (ip), vehicle: saline with Tween-80) was 86 % of control.
In the case of `CC(=O)OCC12C3CC(=O)OC1C(OC(=O)C=C(C)C)C1C(C)=CC(=O)C(OC(C)=O)C1(C)C2C(=O)C(OC(C)=O)C3C` (stereo not given), the T/C (dose: 0.5 mg/kg/injection, schedule: Q01DX009 (ip), vehicle: distilled water + Tween-80) is reported as 93 % of control, the T/C (dose: 1.0 mg/kg/injection, schedule: Q01DX009 (ip), vehicle: distilled water + Tween-80) is reported as 101 % of control and the T/C (dose: 2.0 mg/kg/injection, schedule: Q01DX009 (ip), vehicle: distilled water + Tween-80) is reported as 118 % of control. The T/C (dose: 4.0 mg/kg/injection, schedule: Q01DX009 (ip), vehicle: distilled water + Tween-80) was 93 % of control and the T/C (dose: 8.0 mg/kg/injection, schedule: Q01DX009 (ip), vehicle: distilled water + Tween-80) was 98 % of control.
With `Cc1c(N)nc([C@H](CC(N)=O)NC[C@H](N)C(N)=O)nc1C(=O)N[C@H](C(=O)N[C@H](C)[C@@H](O)CC(=O)N[C@H](C(=O)NC(O[C@@H]1O[C@@H](C)[C@@H](N)[C@@H](O)[C@H]1O)C(O)c1nc(-c2nc(C(=O)NCCCCN)cs2)cs1)[C@@H](C)O)[C@@H](O[C@@H]1O[C@@H](CO)[C@@H](O)[C@H](O)[C@@H]1O[C@H]1O[C@H](CO)[C@@H](O)[C@H](OC(N)=O)[C@@H]1O)c1c[nH]cn1` (stereo not given in full) the T/C (dose: 0.25 mg/kg/injection, schedule: Q01DX009 (ip), vehicle: saline) was 104 % of control, the T/C (dose: 0.4 mg/kg/injection, schedule: Q01DX009 (ip), vehicle: saline) was 116 % of control and 94 % of control and the T/C (dose: 0.5 mg/kg/injection, schedule: Q01DX009 (ip), vehicle: saline) was 107 % of control. The T/C (dose: 0.8 mg/kg/injection, schedule: Q01DX009 (ip), vehicle: saline) was 94 % of control, the T/C (dose: 1.0 mg/kg/injection, schedule: Q01DX009 (ip), vehicle: saline) was 115 % of control and the T/C (dose: 1.6 mg/kg/injection, schedule: Q01DX009 (ip), vehicle: saline) was 98 % of control. The T/C (dose: 2.0 mg/kg/injection, schedule: Q01DX009 (ip), vehicle: saline) was 114 % of control, the T/C (dose: 3.2 mg/kg/injection, schedule: Q01DX009 (ip), vehicle: saline) was 101 % of control and the T/C (dose: 4.0 mg/kg/injection, schedule: Q01DX009 (ip), vehicle: saline) was 121 % of control. The T/C (dose: 6.4 mg/kg/injection, schedule: Q01DX009 (ip), vehicle: saline) was 97 % of control.
With `O=C(Nc1ccc(C2=NCCCN2)cc1)c1ccc(C(=O)Nc2ccc(C3=NCCCN3)cc2)nc1` the T/C (dose: 0.31 mg/kg/injection, schedule: Q01DX009 (ip), vehicle: saline with Tween-80) was 100 % of control, the T/C (dose: 0.62 mg/kg/injection, schedule: Q01DX009 (ip), vehicle: saline with Tween-80) was 106 % of control and the T/C (dose: 1.25 mg/kg/injection, schedule: Q01DX009 (ip), vehicle: saline with Tween-80) was 105 % of control. For the same compound, the T/C [7] was 100 % of control and the T/C [8] was 100 % of control.

— PubChem BioAssay AID200 (DTP/NCI, 2004)
